How the values were obtained:
Test in all cases: relative viability (nuclei count vs DMSO), 5 days (fraction); higher = more cells survive
[1] = compound: O[C@@H](COc1cccc2ncccc12)CN1CCN([C@@H]2c3ccccc3[C@@H]3[C@H](c4ccccc42)C3(F)F)CC1 [Zosuquidar] + COc1cccc2cc(-c3nc([C@H]4CC[C@H](C(=O)O)CC4)n4ncnc(N)c34)[nH]c12 [OSI-027] (partner 0.5 µM)
Summary of the method: (§1)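 Lung cancer cell lines in 1536-well plates were dosed by pin tool the day after seeding, either with one drug alone or with a fixed anchor-drug dose plus five library-drug doses (not always all listed) in √10 steps. After 5 days, cells were fixed and their nuclei stained in one step (final 0.05% Triton X-100, 1% formaldehyde, 1 ug/ml Hoechst), then counted on 4× images. Relative viability is the nuclei count in treated wells divided by that in vehicle wells. Values are medians of duplicate plates.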

[2] = compound: C1=CC(=CC=C1NC(=S)NNC2=C(C=C(C=C2[N+](=O)[O-])C(F)(F)F)[N+](=O)[O-])F [Kobe2602] + CCNC(=O)c1noc(-c2cc(C(C)C)c(O)cc2O)c1-c1ccc(CN2CCOCC2)cc1 [Luminespib] (partner 0.01 µM)
Summary of the method: as §1

[3] = compound: COc1cc2nccc(Oc3ccc(NC(=O)C4(C(=O)Nc5ccc(F)cc5)CC4)cc3)c2cc1OC [Cabozantinib] + CC1(C)CCC(c2ccc(Cl)cc2)=C(CN2CCN(c3ccc(C(=O)NS(=O)(=O)c4ccc(N[C@H](CCN5CCOCC5)CSc5ccccc5)c(S(=O)(=O)C(F)(F)F)c4)cc3)CC2)C1 [Navitoclax] (partner 0.5 µM)
Summary of the method: as §1

[4] = compound: C1=CC(=CC=C1NC(=S)NNC2=C(C=C(C=C2[N+](=O)[O-])C(F)(F)F)[N+](=O)[O-])F [Kobe2602] + CS(=O)(=O)CCNCc1ccc(-c2ccc3ncnc(Nc4ccc(OCc5cccc(F)c5)c(Cl)c4)c3c2)o1 [Lapatinib] (partner 2 µM)
Summary of the method: as §1

Cell Line | relative viability ([1]; first compound 0.01 µM) | relative viability ([1]; first compound 0.03162 µM) | relative viability ([1]; first compound 0.1 µM) | relative viability ([1]; first compound 0.3162 µM) | relative viability ([1]; first compound 1 µM) | relative viability ([2]; first compound 0.2 µM) | relative viability ([2]; first compound 0.6325 µM) | relative viability ([2]; first compound 2 µM) | relative viability ([2]; first compound 6.325 µM) | relative viability ([2]; first compound 20 µM) | relative viability ([3]; first compound 0.02 µM) | relative viability ([3]; first compound 0.06325 µM) | relative viability ([3]; first compound 0.2 µM) | relative viability ([3]; first compound 0.6325 µM) | relative viability ([3]; first compound 2 µM) | relative viability ([4]; first compound 0.2 µM) | relative viability ([4]; first compound 0.6325 µM) | relative viability ([4]; first compound 2 µM) | relative viability ([4]; first compound 6.325 µM) | relative viability ([4]; first compound 20 µM)
NCI-H1437 | 0.865 | 0.889 | 0.765 | 1.12 | 0.871 | 1.12 | 1.11 | 1.1 | 1.14 | 0.984 | 1.2 | 1.13 | 1.12 | 1.13 | 1.02 | 0.815 | 0.847 | 0.723 | 0.79 | 0.673
NCI-H1975 | 0.789 | 0.684 | 0.679 | 0.885 | 0.832 | 0.365 | 0.29 | 0.229 | 0.216 | 0.288 | 1.25 | 1.09 | 1.22 | 1.01 | 1.05 | 0.886 | 0.956 | 0.767 | 0.756 | 0.852
BEN | 0.31 | 0.297 | 0.288 | 0.301 | 0.313 | 0.507 | 0.576 | 0.386 | 0.481 | 0.436 | 0.05 | 0.0759 | 0.0381 | 0.213 | 0.0541 | 0.671 | 0.935 | 0.782 | 0.69 | 0.811

— the supplement of paper PMC10307832
